# Source: US7745450B2, “Pyrazolo[4,3-d]pyrimidines, processes for their preparation and methods for therapy” (Institute of Experimental Botany, priority 2002, dated 2010)
# Like-named read-outs stand apart in the source and are kept apart here.
# How the values were obtained:
# [1] = test system: normal human lymphocytes; experiment: Immunosuppressive activity, 3H-thymidine incorporation in concanavalin A activated lymphocytes; format: cell-based; details: Lymphocyte, 72 hours, [3H]-TdR, read-out: Human lymphocytes ED50
# Protocol: Human heparinized peripheral blood was obtained from healthy volunteers by cubital vein punction. The blood was diluted in PBS (1:3) and mononuclear cells were separated by centrifugation in Ficoll-Hypaque density gradient (Pharmacia, 1.077 g/ml) at 2200 rpm for 30 minutes. Following centrifugation, lymphocytes were washed in PBS and resuspended in cell culture medium (RMPI 1640, 2 mM glutamine, 100 U/ml penicillin, 100 μg/ml streptomycin, 10% fetal calf serum and sodium bicarbonate).
# The cells were diluted at target density of 1.100.000 cells/ml were added by pipette (180 μl) into 96/well microtiter plates. Four-fold dilutions of the intended test concentration were added at time zero in 20 μl aliquots to the microtiter plate wells. Usually, test compound was evaluated at six 4-fold dilutions. In routine testing, the highest well concentration was 266.7 μM. All drug concentrations were examined in duplicates. All wells with exception of unstimulated controls were activated with 50 μl of concanavalin A (25 μg/ml). Incubations of cells with test compounds lasted for 72 hours at 37° C., in 5% CO2 atmosphere and 100% humidity. At the end of incubation period, the cells were assayed by using the [^3H]-TdR:
# Cell cultures were incubated with 0.5 μCi (20 μl of stock solution […]) per well for 6 hours at 37° C. and 5% CO2. The automated cell harvester was used to lyse cells in water and adsorb the DNA onto glass-fiber filters in the format of microtiter plate. The DNA incorporated [^3H]-TdR was retained on the filter while unincorporated material passes through. The filters were dried at room temperature overnight, sealed into a sample bag with 10-12 ml of scintillant. The amount of [^3H]-TdR present in each filter (in cpm) was determined by scintillation counting in a Betaplate liquid scintillation counter. The effective dose of immunosuppressant (ED) was calculated using the following equation: ED=(CCPMdrug exposed well/mean CCPMcontrol wells)×100%.
# [2] = test system: B16; experiment: In vitro cytotoxic activity, Calcein AM; format: cell-based; details: Mus musculus, B16, 72 h, three days
# [3] = test system: CEM (human lymphoblastoid leukemia); experiment: In vitro cytotoxic activity, Calcein AM; format: cell-based; details: Homo sapiens, 72 h, three days
# In short: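 CEM cells were seeded at 10^4/well in DMEM + 10% FBS and exposed to six concentrations from 200 to 0.2 μM, in triplicate, for 3 days at 37 °C and 5% CO2. Viable cells were then measured by Calcein AM fluorescence after 1 h loading.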
# [4] = test system: human melanoma cell line Arn8 (p53-responsive reporter); experiment: p53-dependent transcriptional activity, β-galactosidase reporter; format: cell-based; details: concentration inducing maximum of β-galactosidase activity
# Protocol: Cell lines established from the human cervical carcinoma (HeLa), human breast carcinoma (MCF-7, BT549 and BR474), human osteosarcoma (HOS), human colon carcinoma (HT29), murine fibroblasts (T221acZ) and the human melanoma (Arn8) cell lines were cultured in Dubecco's Modified Eagle Medium (DMEM) supplemented with 10% fetal bovine serum. Tested compounds were added from 50 mM stock solution in dimethyl-sulphoxide (DMSO) into the culture medium at final concentration 20 μM. Control cells received an equivalent volume of DMSO.
# β-galactosidase activity of human melanoma cell line […] T221acZ (both stabile transfected with a p53-responsive reporter construct pRGCΔfoslacZ) (Frebung et al., Cancer Res., 52, 1992-6976) was determined. For the determination of total β-galactosidase activity, cells were lysed by 3 freeze-thaw cycles in 0.25 M Tris pH 7.5, and lysates were assayed as described by Sambrook et al., Mol. cloning, New York, 1989.
# Effect of 25 and related compounds on activation of p53 protein was also analyzed in human melanoma cell line Arn8 and murine fibroblast cell line T22LacZ expressing β-galactosidase under control of p53 responsive promoter. Induction of wt p53 in these cells treated with 20 μM 25 (6, 12 and 24 hrs) leads to activation of responsive promoter and consequently to expression of β-galactosidase. Arn8 and T221acZ cells treated with 25 were fixed and examined microscopically for β-galactosidase activity using X-gal substrate leading to about 25% blue-colored cells compared to less than 1% of blue-colored cells in DMSO-treated control cells (data not shown). The total β-galactosidase activity in Arn8 cells was also assessed using colorimetric assay.
# [5] = biological target: MMK1 protein kinase (Vicia faba, UniProt A0AAV1B7B8); experiment: MMK1 protein kinase activity; format: biochemical
# In short: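 Plant CDK was purified from extracts on p13^suc1-beads or by anti-cdc2a-MS immunopurification, and MMK1 was immunopurified from Vicia faba extracts. Kinase activity was read as radioactivity incorporated into histone H1 or myelin basic protein, quantified by phosphoimager.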
# [6] = test system: β-adrenergic receptors; experiment: Modulation of isoproterenol-induced cAMP synthesis in rat C6 glioma; format: cell-based; details: cAMP synthesis induced by 5 μM (−) isoproterenol; for IC50: read-out: I50
# Protocol: Mechanism of action of novel compounds is presented on FIG. 3. Rat C6 glioma (ATCC N° CCL107) was cultivated in monolayer in serum-free chemically defined medium containing Ham's F10/minimal essential medium (1:1 vol/vol), 2 mM L-glutamine, 1% (vol/vol) minimal essential medium vitamins (100×), 1% (vol/vol) minimal essential medium nonessential amino acids (100×), 100 U/ml penicillin, 100 μg/ml streptomycin and 30 nM sodium selenide. Incubation was at 37° C. in a humidified atmosphere. Assays were performed in the logarithmic growth phase at a density of 2.5×10^5 cells/cm^2. Intracellular cAMP synthesis was induced by addition of 5 μM (−) isoproterenol. After 30 min incubation at 37° C. the medium was removed and the cellular amount of cAMP determined using the cAMP-enzyme immunoassay kit of Amersham. The I50 is determined from a dose-response curve in duplicate.
# The effect of seven purine-analogs was measured after simultaneous addition with isoproterenol.
# [7] = test system: Cytokinin-dependent tobacco callus Nicotiana tabacum L. cv. Wisconsins 38; experiment: Tobacco callus bioassay for cytotoxicity (herbicidal activity); format: cell-based; details: Nicotiana tabacum, 672 h
# Protocol: The novel compounds have also been tested in tobacco callus bioassay for cytotoxicity (herbicidal activity) and induction of cell death. The compounds to be tested were dissolved in dimethylsulfoxide (DMSO) and the solution brought up to 10^−3 M with distilled water. […] Cytokinin-dependent tobacco callus Nicotiana tabacum L. cv. Wisconsins 38 Murashige-Skoog medium, containing per 1 liter: 4 μmol nicotinic acid, 2.4 μmol pyridoxine hydrochloride, 1.2 μmol thiamine, 26.6 μmol glycine, 1.37 μmol glutamine, 1.8 μmol myo.inositol, 30 g of sucrose, 8 g of agar, […] α-naphthylacetic acid and 0.5 μmol 6-benzylaminopurine. Sub cultivation was carried out every three weeks. Fourteen days before the bioassay, the callus tissue was transferred to the media without 6-benzylaminopurine. Compounds were tested with two different concentrations of 6-benzylaminopurine (10^−5 M and 10^−6 M). Inhibitory growth activity was determined from the increase in fresh callus weight after four weeks of cultivation. Five replicates were prepared for each concentration tested and the entire test was repeated at least twice.
# [8] = biological target: cdk1/cyclin B (CDC2) (Homo sapiens, UniProt P06493); experiment: CDK inhibition assay, cdk1/cyclin B (CDC2) kinase, histone phosphorylation; format: biochemical
# In short: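 Radiometric endpoint kinase assay under linear conditions: histone (1 mg/ml) phosphorylated with 15 μM ATP and [γ-32P]ATP in 50 mM HEPES pH 7.4, 10 mM MgCl2, 1 mM DTT. IC50 obtained graphically from dose-response curves of % maximal activity, read by imaging analyzer.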
# [9] = test system: T-lymphocyte leukemia Molt3 cell line; experiment: Cell proliferation of Molt3, flow cytometric cell count; format: cell-based, human; details: 96 hours
# Protocol: (§1) Cell lines: Human leukemic cell lines were obtained from the American Type Culture Collection (ATCC, Rockville, Md., USA). They were cultured in Iscove's Modified Dulbecco's Medium (IMDM) supplemented with 10% heat inactivated fetal calf serum (FCS), 200 U/ml penicillin, 200 μg/ml streptomycin and 1 μg/ml amphotericin B. Cells were cultured in a 5% CO2-95% air fully humidified incubator. For effects on clonogenic output, 1000 cells/well were plated in duplicate in methylcellulose (0.9%), supplemented with 20% FCS for 14 days.
# (§2) Cells were plated at 10000 per well in 200 μl IMDM medium and incubated with 0-50 μM of the novel compounds (Tab 8), by addition of drug directly to the culture medium and incubated at 37° C. for 96 hours (Tab 8). Absolute cell number was determined by addition of a known concentration Fluoresbrite microspheres (FITC) (Polysciences, Inc.). The absolute number of cells/well was calculated as: {(total number of beads added/well)/(number of beads measured)×(number of measured cells in the gate of interest)}. All analyses were performed with a FACScan (BD), using CELLQuest software (Becton Dickinson).
# (§3) Response of the myeloid leukemia KG1 and T-lymphocyte leukemia Molt3 cell lines to the cytostatic effect of the novel compounds was determined using the above-mentioned standardized bead suspension that was used to determine the absolute cell number by flow cytometric (FCM) measurement. Cells were grown in the presence of increasing concentration of the novel compounds.
# [10] = test system: myeloid leukemia KG1 cell line; experiment: Cell proliferation of KG1, flow cytometric cell count; format: cell-based, human; details: 96 hours, read-out: KG1 IC50
# Protocol: as §1, §2, §3
# To determine reversibility of the effects of the novel compounds, cells were plated at 10000 per well and exposed to 0-50 μM of the compounds for the time indicated, followed by washing in phosphate-buffered saline (PBS) (Life Technologies) and reseeded into drug-free medium for 7 additional days. An identical set of cells was plated and exposed to the drugs for 7 additional days. After 7 days (168 hours), the relative cell number was assayed by flow cytometry.
# [11] = test system: PHA-stimulated lymphocytes (PBMC); experiment: Proliferation of PHA-stimulated lymphocytes (PBMC), flow cytometric cell count; format: cell-based, human; details: 96 hours, IL-2
# Protocol: Peripheral blood mononuclear cells (PBMC): Human peripheral blood mononuclear cells were isolated by density gradient (Ficoll-Hypaque) (LSM, ICN Biomedicals Inc.). PBMC were stimulated with 5 μg/ml phytohemaglutinin A (PHA) (Sigma) during 24-48 hours in IMDM supplemented with 10% FCS at 37° C. After washing off the PHA, PBMC were incubated with interleukin-2 (IL-2) (10 U/ml) (Genzyme).
# as §2
# PHA-stimulated lymphocytes (PBMC) were tested for their cytotoxicity as one of the normal counterparts of the cell lines. Cells were grown for 96 hours in the presence of IL-2 and different concentrations of the novel compounds and cell number was counted on the flow cytometer.
# Chain of cdk1/cyclin B (CDC2) (P06493 whole entry, species assumed): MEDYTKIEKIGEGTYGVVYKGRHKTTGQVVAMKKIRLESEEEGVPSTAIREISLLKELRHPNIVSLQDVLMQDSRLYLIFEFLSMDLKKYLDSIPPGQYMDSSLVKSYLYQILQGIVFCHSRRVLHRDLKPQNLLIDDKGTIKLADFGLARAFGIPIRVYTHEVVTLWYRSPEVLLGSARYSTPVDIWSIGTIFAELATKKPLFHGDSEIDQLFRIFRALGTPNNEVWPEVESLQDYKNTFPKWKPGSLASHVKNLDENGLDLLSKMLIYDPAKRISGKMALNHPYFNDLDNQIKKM
# Chain of cdk1/cyclin B (CDC2) (P14635 whole entry partner, species assumed): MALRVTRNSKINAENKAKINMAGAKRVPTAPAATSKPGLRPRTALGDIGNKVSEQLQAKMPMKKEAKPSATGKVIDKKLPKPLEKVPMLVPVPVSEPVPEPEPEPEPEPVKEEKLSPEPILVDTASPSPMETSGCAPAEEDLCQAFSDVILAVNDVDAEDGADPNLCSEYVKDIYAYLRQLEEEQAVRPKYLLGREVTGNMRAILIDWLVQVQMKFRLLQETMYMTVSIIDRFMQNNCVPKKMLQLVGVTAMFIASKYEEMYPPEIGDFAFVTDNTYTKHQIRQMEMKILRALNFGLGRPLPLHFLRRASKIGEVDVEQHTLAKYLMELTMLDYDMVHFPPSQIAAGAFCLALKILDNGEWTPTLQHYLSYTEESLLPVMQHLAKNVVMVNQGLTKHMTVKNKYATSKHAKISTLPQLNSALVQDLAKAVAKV
# Chain of MMK1 protein kinase (A0AAV1B7B8 1-394): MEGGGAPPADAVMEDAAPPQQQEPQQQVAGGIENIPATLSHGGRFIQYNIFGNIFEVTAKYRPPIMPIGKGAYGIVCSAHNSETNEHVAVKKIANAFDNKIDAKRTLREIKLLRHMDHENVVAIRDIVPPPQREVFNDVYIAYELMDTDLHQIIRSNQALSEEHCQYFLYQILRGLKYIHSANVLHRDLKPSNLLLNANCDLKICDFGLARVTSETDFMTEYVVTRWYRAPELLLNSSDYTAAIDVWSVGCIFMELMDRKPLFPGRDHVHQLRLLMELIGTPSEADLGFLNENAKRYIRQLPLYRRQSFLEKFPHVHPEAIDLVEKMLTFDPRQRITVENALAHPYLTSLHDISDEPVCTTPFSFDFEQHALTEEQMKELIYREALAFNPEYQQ
compound,measurement,setting,value
CC(C)c1n[nH]c2c(Nc3cccc(Cl)c3)nc(N[C@@H](CO)C(C)C)nc12,EC50,[1],3.2 µM
same,GI50,[2],1.7 µM
same,GI50,[3],1.2 µM
same,Max β-Gal. Activtity Conc.,[4],7 µM
CC[C@H](CO)Nc1nc(Nc2cccc(Cl)c2)c2[nH]nc(C(C)C)c2n1,EC50,[1],1.8 µM
same,Max β-Gal. Activtity Conc.,[4],12 µM
CC[C@H](CO)Nc1nc(NCc2ccc(OC)cc2)c2[nH]nc(C(C)C)c2n1,Max β-Gal. Activtity Conc.,[4],0.8 µM
CC[C@H](CO)Nc1nc(NCc2ccccc2)c2[nH]nc(C)c2n1,EC50,[1],9.5 µM
same,GI50,[2],4.2 µM
same,GI50,[3],3.4 µM
same,Max β-Gal. Activtity Conc.,[4],9.5 µM
same,IC50,[5],1.3 µM
CC(C)c1n[nH]c2c(NCc3ccccc3)nc(NC(CO)C(C)C)nc12 (stereo not drawn),Effect,"[6]; simultaneous addition, 30 min",inhibition
same,IC50,[6],25 ± 2 µM
CC[C@H](CO)Nc1nc(NCc2ccc(O)cc2)c2[nH]nc(C(C)C)c2n1,Effect: activation,"[6]; simultaneous addition, 30 min",1.8-fold activation
CC(C)c1n[nH]c2c(Nc3cccc(Cl)c3)nc(NC3CCCC3)nc12,Max β-Gal. Activtity Conc.,[4],11.5 µM
COc1ccc(CNc2nc(NC3CCCC3)nc3c(C(C)C)n[nH]c23)cc1,Max β-Gal. Activtity Conc.,[4],21 µM
"5-(hexylamino)-7-(1-phenyl-2-hydroxyethylamino)-3-isopropylpyrazolo[4,3-d]pyrimidine [Compound 98]",Effect,"[6]; simultaneous addition, 30 min",inhibition
same,IC50,[6],8 ± 1 µM
"CC(C)c1n[nH]c2c(NCc3ccccc3)nc(NCCCN)nc12 [Compound 17, 5-(3-aminopropylamino)-7-benzylamino-3-isopropylpyrazolo[4,3-d]pyrimidine]",IC50,[6],25 ± 2 µM
same,IC50,"[7]; read-out: 10^−5 M BAP IC50, 10^−5 M 6-benzylaminopurine, four weeks",> 50 µM
same,IC50,"[7]; read-out: 10^−6 M BAP IC50, 10^−6 M 6-benzylaminopurine, four weeks",48 µM
same,IC50,[8],0.08 µM
"CCC(CO)Nc1nc(NCc2ccc(O)c(O)c2)c2[nH]nc(C(C)C)c2n1 (stereo not drawn) [Compound 47, 5-(1-ethyl-2-hydroxyethylamino)-7-(3,4-dihydroxybenzyl)amino-3-isopropylpyrazolo[4,3-d]pyrimidine]",IC50,"[9]; Homo sapiens, MOLT-3",10 ± 1 µM
same,IC50,"[10]; Homo sapiens, KG-1",8 ± 1 µM
same,IC50,"[11]; Homo sapiens, Lymphocyte",3 ± 1.2 µM
same,IC50,[8]; cell free system (Table 8),1.2 µM
"CC(C)c1n[nH]c2c(NC(CO)c3ccccc3)nc(N3CCOCC3)nc12 (stereo not drawn) [Compound 85, 5-(morpholino)-7-(1-phenyl-2-hydroxyethylamino)-3-isopropylpyrazolo[4,3-d]pyrimidine]",IC50,"[9]; Homo sapiens, MOLT-3",20 ± 1.3 µM
same,IC50,"[10]; Homo sapiens, KG-1",28 ± 1.5 µM
same,IC50,"[11]; Homo sapiens, Lymphocyte",20 ± 7.7 µM
same,IC50,[8]; cell free system (Table 8),5.5 µM
"CC(C)c1n[nH]c2c(SCc3ccccc3)nc(NCCCO)nc12 [Compound 145, 5-(3-hydroxypropylamino)-7-benzylthio-3-isopropylpyrazolo[4,3-d]pyrimidine]",IC50,"[9]; Homo sapiens, MOLT-3",19 ± 2 µM
same,IC50,"[10]; Homo sapiens, KG-1",42 ± 5 µM
same,IC50,"[11]; Homo sapiens, Lymphocyte",18 ± 1.6 µM
same,IC50,[8]; cell free system (Table 8),> 50 µM
"CC(C)c1n[nH]c2c(N[C@@H](CO)c3ccccc3)nc(NC[C@H](O)CO)nc12 [Compound 158, 5-(2,3-dihydroxypropylamino)-7-[(R,S)-(1-phenyl-2-hydroxyethyl)amino]-3-isopropylpyrazolo[4,3-d]pyrimidine]",IC50,[9],13.4 ± 1.4 µM
same,IC50,[10],12 ± 1 µM
same,IC50,[11],10 ± 1 µM
same,IC50,[8]; cell free system (Table 8),> 50 µM
